Measurements: paper doi:10.1101/2025.01.28.635346v1 (bioRxiv, 2025)
pEC50, pIC50: −log10 of the molar value. Bridge positions count the residues as written; N and C are the ends. Peptide text beside a SMILES is read from it.

Legend:
integrin αvβ8 = integrin αvβ8 (Homo sapiens, UniProt P06756+P26012); experiment: ELISA competition assay, integrin αvβ8 binding to LAP
integrin α8β1 = integrin α8β1 (Homo sapiens, UniProt P05556+P53708); experiment: ELISA competition assay, integrin α8β1; format: binding
ADRB1 = ADRB1 (Homo sapiens, UniProt P08588); experiment: Safetyscan47 GPCR cAMP, Agonist; format: cell-based
MAOA = target: T1, MAOA (Homo sapiens, UniProt P21397); experiment: Safetyscan47 Non-Kinase Enzymes Enzymatic, Inhibitor; format: biochemical
T1 sequence (P21397 1-527): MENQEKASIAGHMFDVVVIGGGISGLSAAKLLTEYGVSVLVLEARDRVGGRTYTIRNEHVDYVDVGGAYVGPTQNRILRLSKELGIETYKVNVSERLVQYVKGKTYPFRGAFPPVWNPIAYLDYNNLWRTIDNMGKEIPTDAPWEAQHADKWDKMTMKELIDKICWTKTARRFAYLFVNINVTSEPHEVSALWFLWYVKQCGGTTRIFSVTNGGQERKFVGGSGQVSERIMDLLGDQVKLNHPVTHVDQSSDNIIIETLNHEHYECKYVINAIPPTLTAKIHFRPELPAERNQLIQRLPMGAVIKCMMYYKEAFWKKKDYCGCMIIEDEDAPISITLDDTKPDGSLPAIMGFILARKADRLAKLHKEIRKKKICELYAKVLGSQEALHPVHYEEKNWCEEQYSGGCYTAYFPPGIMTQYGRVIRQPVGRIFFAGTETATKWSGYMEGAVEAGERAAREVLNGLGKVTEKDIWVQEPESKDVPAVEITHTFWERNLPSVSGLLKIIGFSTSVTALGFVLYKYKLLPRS

KvLQT1/minK = KvLQT1/minK (Homo sapiens, UniProt P15382+P51787); experiment: Safetyscan47 Ion Channel, Blocker; format: cell-based
ADRA1A = target: T2, ADRA1A (Homo sapiens, UniProt P35348); experiment: Safetyscan47 GPCR Calcium Flux, Antagonist; format: cell-based
T2 sequence (P35348 1-466): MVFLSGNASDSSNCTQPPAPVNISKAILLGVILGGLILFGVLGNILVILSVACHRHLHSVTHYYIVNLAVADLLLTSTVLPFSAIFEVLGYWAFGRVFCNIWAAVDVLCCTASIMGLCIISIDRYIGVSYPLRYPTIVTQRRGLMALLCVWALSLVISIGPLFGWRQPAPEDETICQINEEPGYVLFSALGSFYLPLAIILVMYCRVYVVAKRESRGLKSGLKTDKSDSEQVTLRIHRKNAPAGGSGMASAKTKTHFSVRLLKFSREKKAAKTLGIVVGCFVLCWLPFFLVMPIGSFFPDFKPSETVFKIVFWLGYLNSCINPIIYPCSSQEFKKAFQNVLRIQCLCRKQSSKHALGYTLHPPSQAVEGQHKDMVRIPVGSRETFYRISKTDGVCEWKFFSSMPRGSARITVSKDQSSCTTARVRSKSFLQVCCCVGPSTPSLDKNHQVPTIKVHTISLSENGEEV

[1] = Pharmacokinetics in female Balb/c mice; format: in vivo, mouse
AChE = AChE (Homo sapiens, UniProt P22303); experiment: Safetyscan47 Non-Kinase Enzymes Enzymatic, Inhibitor; format: biochemical
integrin αvβ5 = integrin αvβ5 (Homo sapiens, UniProt P06756+P18084); experiment: ELISA competition assay, integrin αvβ5; format: binding
[2] = Plasma stability, human plasma; format: in vitro ADME
[3] = IP 30 mg/kg, mouse, animal 11F031
[4] = IP 30 mg/kg, mouse, animal 11F032
[5] = IP 30 mg/kg, mouse, animal 11F033
[6] = Table 3SA: IP 30 mg/kg, Mean N=2
[7] = female, Balb/c, mouse, plasma, ip, 30 mg/kg

For `CC[C@H](C)[C@H](NC(=O)[C@H](CC(C)C)NC(=O)[C@H](CC(=O)O)NC(=O)CNC(=O)[C@H](CCCNC(=N)N)NC(=O)[C@@H](NC(=O)[C@H](Cc1ccccc1)NC(=O)[C@H](Cc1ccc(O)cc1)NC(=O)[C@@H]1CCC(=O)NCC(=O)NCC(=O)N[C@@H](CCCNC(=N)N)C(=O)NCC(=O)N[C@@H](Cc2c[nH]cn2)C(=O)N[C@@H](C(C)C)C(=O)N2CCC[C@H]2C(=O)N1)C(C)C)C(=O)N[C@@H](CO)C(=O)N[C@@H](Cc1ccccc1)C(=O)N[C@@H](Cc1ccc(O)cc1)C(=O)N[C@@H](CCCCN)C(=O)O` [lassotide 36] (GGRGHVPEYFVRGDLISFYK-OH; lactam N-8), the pIC50 (integrin αvβ8) was 7.82, the pIC50 (integrin α8β1) was 5.41 and the pEC50 (ADRB1) was < 4.35. For the same compound, the Emax (ADRB1; read-out: Max Response) was 0%, the pIC50 (MAOA) was < 4.35 and the Emax (MAOA; read-out: Max Response) was 10.8%. The pIC50 (KvLQT1/minK) was < 4.35, the Emax (KvLQT1/minK; read-out: Max Response) was 1.8% and the pIC50 (ADRA1A) was < 4.35. The Emax (ADRA1A; read-out: Max Response) was 9.9%, the AUCINF [1, 3] was 64500 and the AUClast [1, 3] was 64500. The CL/F [1, 3] was 7.75, the Cmax [1, 3] was 21000 and the Tmax [1, 3] was 2.0. It also gave a Vz/F [1, 3] of 363, a t1/2 [1, 3] of 0.54 and an AUCINF [1, 4] of 71700. For the same compound, the AUClast [1, 4] was 69400, the CL/F [1, 4] was 6.97 and the Cmax [1, 4] was 27300. It also gave a Tmax [1, 4] of 1.0, a Vz/F [1, 4] of 389 and a t1/2 [1, 4] of 0.64. The AUClast [1, 5] was 885, the Cmax [1, 5] was 10600 and the Tmax [1, 5] was 0.17. For the same compound, the Vz ([1]; Mouse, 30 mg/kg IP, mean) was 0.4 L/kg, the AUCINF [1, 6] was 68100 and the Vz/F [1, 6] was 376. For the same compound, the AUC(0-t) [1, 7] was 44900 ng·h/mL, the CL/F [1, 7] was 7.36 mL/min/kg and the Cmax [1, 7] was 19600 ng/mL. The Tmax [1, 7] was 63.6 min, the half-life [1, 7] was 35.5 min and the pIC50 (AChE) was < 4.35. For the same compound, the Emax (AChE; read-out: Max Response) was 0%, the pIC50 (integrin αvβ5) was < 5.00 and the remaining at 0.5 h, 2 μM [2] was 91.9%. It also gave a remaining at 4 h, 2 μM [2] of 93.2%.
